Among the data in patent US20110269783A1, “NOVEL 2,3-DIAMINO-QUINAZOLINONE DERIVATIVES AND THEIR MEDICAL USE” (NEUROSEARCH A/S, priority 2008, published 2011) are EC50 and Emax values, retold here.

The structures appear in SMILES notation.

This test has as its target T1, human Kv7.2+3 (Homo sapiens, UniProt O43525+O43526).
T1 construct: expressed in transfected cells; host or cells: HEK293
The experiment in a line: FLIPR-based thallium influx characterization of Kv7.2+3 modulators. It counts as cell-based. The settings on record: for EC50: HEK293 cells over-expressing human Kv7.2+3, Tl+ influx, BTC-AM, FLIPR, 50% of channel activity compared to retigabine control responses; for Emax: maximal response relative to the reference (retigabine) response, HEK293 human Kv7.2+3, Tl+ influx FLIPR, read-out: Efficacy. On the procedure: This experiment determines the ability of a test compound to modulate the activity of Kv7.2+3 channels heterologously expressed in human HEK293 cells. The ability is determined relative to retigabine. The activity is determined using a standard thallium (I) sensitive assay, e.g. using a fluorometric method in a Fluorescent Image Plate Reader (FLIPR) as described below in more detail.
Full concentration/response curves are generated and EC50 values are calculated based on max values. EC50 values (Effective Concentration) represent the concentration of the test substance, at which 50% of the channel activity is obtained when compared to retigabine control responses. Maximal response determined relative to the reference (retigabine) response is calculated.
Human HEK293 cells over-expressing human Kv7.2+3 are grown in culture medium (DMEM supplemented with 10% foetal bovine serum), in polystyrene culture flasks ([…]) in a humidified atmosphere of 5% CO2 in air, at 37° C. Cell confluence should be 80-90% on day of plating. Cells are rinsed with 4 ml of PBS (phosphate buffered saline) and incubated 2 min with 1 ml of Trypsin-EDTA. After addition of 25 ml of culture medium cells are re-suspended by trituration with a 25 ml pipette.
The cells are seeded at a density of ˜3×10^6 cells/ml (25 μl/well) in black-walled, clear bottom, 384-well plates pre-treated with 0.01 g/l poly-D-lysin (20 μl/well for ≧30 min). Plated cells were allowed to proliferate for 24 h before loading with dye.
BTC-AM ([…], Invitrogen) is added 25.5 μl DMSO. The BTC-AM stock solution (2 mM) is diluted to a final concentration of 2 μM in Cl^− free assay buffer (in mM: 140 Natgluconate, 2.5 K^+-gluconate, 6 Ca2^+-gluconate, 1 Mg^2+ gluconate, 5 glucose, 10 HEPES, pH 7.3) containing 2 μM ouabain, 2 mM amaranth and 1 mM tartrazine.
The culture medium is aspirated from the wells, the cells are washed thrice in Cl^− free assay buffer, and 25 μl of the BTC-AM loading solution is added to each well. The cells are incubated at 37° C. for 60 min.
After the loading period, the Tl^+-sensitive BTC fluorescence signal is measured over time using a FLIPR.
• Temperature: Room temp. • First addition: 12 μl test or control compound after 15 sec at a rate of 30 μl/sec and starting height of 20 μl • Second addition: 12 μl stimulus buffer (Cl^− free assay buffer supplemented with 1 mM Tl2SO4, 5 mM K2SO4 as well as the quenchers amaranth (2 mM) and tartrazine (1 mM)) is added after an additional 3 minutes at a rate of 30 μl/sec and starting height of 30 μl • Reading intervals: First sequence—3 sec×5, 2 sec×24 and 5 sec×25 • Second sequence—1 sec×5, 2 sec×24 and 5 sec×36
Addition plates (compound plate and stimulus plate) are placed in positions 2 and 3, respectively. Cell plates are placed in position 1 and run using the “KCNQ (two additions)” program. FLIPR will then take the appropriate measurements in accordance with the interval settings above. Fluorescence obtained after stimulation is corrected for the mean basal fluorescence (in Cl^− free assay buffer).
Full concentration/response curves are generated and EC50 values (“Effective Concentration”; the concentration at which 50% of the channel activity is obtained when compared to retigabine control responses) are calculated based on peak values. Maximal response determined relative to the reference (retigabine) response is calculated.

As for `CC(CC(=O)Nn1c(N2CCCC2)nc2ccccc2c1=O)c1ccc(Cl)cc1` (stereo not shown) [Compound 1.17, 3-(4-Chloro-phenyl)-N-(4-oxo-2-pyrrolidin-1-yl-4H-quinazolin-3-yl)-butyramide], the midpoint of the response, the EC50, lay at 0.1 µM and the Emax was 85%.

Consider `CC(CC(=O)Nn1c(N2CCCC2)nc2ccccc2c1=O)c1cccc(F)c1` (stereo not shown) [Compound 1.18, 3-(3-Fluoro-phenyl)-N-(4-oxo-2-pyrrolidin-1-yl-4H-quinazolin-3-yl)-butyramide], for which it took 0.015 µM to reach a half-maximal effect (EC50) and the Emax was found to be 98%.

The term EC50 denotes the midpoint of the concentration-response curve.
